PubChem BioAssay AID330 (DTP/NCI, 2004)
“And” between values parts separate entries of the source, which are not always exact repeats. Equal values may be shown once. Toxic doses and inconclusive results are not listed. The calls were made as follows: active = survival T/C of 150% or more; inactive = T/C below 125% in these data.

System: P388 leukemia ip, CD2F1 mice, survival T/C
Assay: NCI In Vivo Anticancer Drug Screen. Data for tumor model P388 Leukemia (intraperitoneal) in CD2F1 (CDF1) mice
Conditions: endpoint: median survival time, higher = longer survival
Summary of the method: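 Mice carrying the transplanted tumor received test compound or vehicle. Survival was recorded in each group, and the value is the treated-group measurement divided by that of the vehicle-treated control group.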

[1] = dose: 100.0 mg/kg/injection, schedule: Q04DX002 (ip), vehicle: saline
[2] = dose: 200.0 mg/kg/injection, schedule: Q04DX002 (ip), vehicle: saline
[3] = dose: 400.0 mg/kg/injection, schedule: Q04DX002 (ip), vehicle: saline
[4] = dose: 60.0 mg/kg/injection, schedule: Q01DX005 (ip), vehicle: saline with Tween-80
[5] = dose: 120.0 mg/kg/injection, schedule: Q01DX005 (ip), vehicle: saline with Tween-80
[6] = dose: 240.0 mg/kg/injection, schedule: Q01DX005 (ip), vehicle: saline with Tween-80
[7] = dose: 6.25 mg/kg/injection, schedule: Q01DX005 (ip), vehicle: Klucel (hydroxypropylcellulose) (HPC)
[8] = dose: 100.0 mg/kg/injection, schedule: Q01DX001 (ip), vehicle: Klucel (hydroxypropylcellulose) (HPC)
[9] = dose: 200.0 mg/kg/injection, schedule: Q01DX001 (ip), vehicle: Klucel (hydroxypropylcellulose) (HPC)
[10] = dose: 400.0 mg/kg/injection, schedule: Q01DX001 (ip), vehicle: Klucel (hydroxypropylcellulose) (HPC)
[11] = dose: 100.0 mg/kg/injection, schedule: Q04DX003 (ip), vehicle: saline with Tween-80
[12] = dose: 50.0 mg/kg/injection, schedule: Q01DX005 (ip), vehicle: saline with Tween-80
[13] = dose: 100.0 mg/kg/injection, schedule: Q01DX005 (ip), vehicle: saline with Tween-80
[14] = dose: 200.0 mg/kg/injection, schedule: Q01DX005 (ip), vehicle: saline with Tween-80
[15] = dose: 50.0 mg/kg/injection, schedule: Q01DX009 (ip), vehicle: Klucel (hydroxypropylcellulose) (HPC)

Measured: T/C

O=C1c2ccc([N+](=O)[O-])cc2NC(O)c2cccn21 (stereo not given)
inactive: dose: 0.1 mg/kg/injection, schedule: Q01DX005 (ip), vehicle: water 96 % of control | dose: 0.2 mg/kg/injection, schedule: Q01DX005 (ip), vehicle: water 96 % of control | dose: 0.4 mg/kg/injection, schedule: Q01DX005 (ip), vehicle: water 91 % of control | dose: 0.8 mg/kg/injection, schedule: Q01DX005 (ip), vehicle: water 96 % of control | dose: 1.6 mg/kg/injection, schedule: Q01DX005 (ip), vehicle: water 96 % of control | dose: 5.0 mg/kg/injection, schedule: Q01DX005 (ip), vehicle: distilled water + Tween-80 99 % of control | dose: 10.0 mg/kg/injection, schedule: Q01DX005 (ip), vehicle: distilled water + Tween-80 95 % of control | dose: 20.0 mg/kg/injection, schedule: Q01DX005 (ip), vehicle: distilled water + Tween-80 95 % of control | dose: 40.0 mg/kg/injection, schedule: Q01DX005 (ip), vehicle: distilled water + Tween-80 91 % of control | dose: 80.0 mg/kg/injection, schedule: Q01DX005 (ip), vehicle: distilled water + Tween-80 91 % of control

CC1(C)CC(=O)C2OC21 (stereo not given)
inactive: [1] 107 % of control and 95 % of control | [2] 101 % of control | [3] 106 % of control and 107 % of control

ClCCCCOC1CCCCO1 (stereo not given)
inactive: [4] 107 % of control | [5] 100 % of control | [6] 105 % of control

COC(=O)c1cccc2c1N(C)c1c(cccc1C(=O)OC)CC2
inactive: dose: 50.0 mg/kg/injection, schedule: Q01DX009 (ip), vehicle: distilled water + Tween-80 + alcohol 93 % of control | dose: 100.0 mg/kg/injection, schedule: Q01DX009 (ip), vehicle: distilled water + Tween-80 + alcohol 94 % of control | dose: 200.0 mg/kg/injection, schedule: Q01DX009 (ip), vehicle: distilled water + Tween-80 + alcohol 99 % of control

CN1CCN=C1c1ccc(NC(=O)c2ccc(C(=O)Nc3ccc(C4=NCCN4C)cc3)c(Cl)c2)cc1
inactive: dose: 1.56 mg/kg/injection, schedule: Q01DX005 (ip), vehicle: Klucel (hydroxypropylcellulose) (HPC) 104 % of control | dose: 3.12 mg/kg/injection, schedule: Q01DX005 (ip), vehicle: Klucel (hydroxypropylcellulose) (HPC) 109 % of control | [7] 118 % of control and 123 % of control

COC(=O)NN(C(=O)OC)C12CCCCC1N(C(=O)OC)N(C(=O)OC)c1c2ccc2cc(OC)ccc12 (stereo not given)
inactive: [8] 96 % of control | [9] 92 % of control | [10] 91 % of control

Cc1cc(NC(=O)SCCOC(=O)COc2ccc(Cl)cc2)ccc1Cl
inactive: [11] 100 % of control | dose: 200.0 mg/kg/injection, schedule: Q04DX003 (ip), vehicle: saline with Tween-80 95 % of control | dose: 400.0 mg/kg/injection, schedule: Q04DX003 (ip), vehicle: saline with Tween-80 90 % of control

CC1=CC(C)(C)N(C)C(N)=N1
inactive: dose: 12.5 mg/kg/injection, schedule: Q01DX005 (ip), vehicle: saline 100 % of control | dose: 25.0 mg/kg/injection, schedule: Q01DX005 (ip), vehicle: saline 91 % of control | dose: 50.0 mg/kg/injection, schedule: Q01DX005 (ip), vehicle: saline 91 % of control

C/C(=N/NC(=S)N1CCCCCC1)c1ncccn1
inactive: dose: 6.25 mg/kg/injection, schedule: Q01DX005 (ip), vehicle: saline with Tween-80 104 % of control | dose: 12.5 mg/kg/injection, schedule: Q01DX005 (ip), vehicle: saline with Tween-80 115 % of control

Cc1ccc(Cl)cc1NC(=O)N(C)CCOC(=O)Nc1cccc(Cl)c1
inactive: dose: 60.0 mg/kg/injection, schedule: Q01DX005 (ip), vehicle: Klucel + Tween-80 93 % of control | dose: 120.0 mg/kg/injection, schedule: Q01DX005 (ip), vehicle: Klucel + Tween-80 92 % of control

Cc1cc2c(cc1C)Nc1oc3ccc4ccccc4c3c(=O)c1C=N2
inactive: [7] 104 % of control | dose: 12.5 mg/kg/injection, schedule: Q01DX005 (ip), vehicle: Klucel (hydroxypropylcellulose) (HPC) 99 % of control | dose: 25.0 mg/kg/injection, schedule: Q01DX005 (ip), vehicle: Klucel (hydroxypropylcellulose) (HPC) 96 % of control | dose: 200.0 mg/kg/injection, schedule: Q01DX005 (ip), vehicle: Klucel (hydroxypropylcellulose) (HPC) 89 % of control

O=C1CC2C(=O)NC(=O)C2C(=O)N1 (stereo not given)
inactive: [12] 104 % of control | [13] 101 % of control | [14] 99 % of control

CN1CCCC2C(c3ccccc3)C(C3=NCCCC3)C(c3ccccc3)CC21 (stereo not given)
inactive: dose: 25.0 mg/kg/injection, schedule: Q01DX009 (ip), vehicle: saline with Tween-80 100 % of control | dose: 25.0 mg/kg/injection, schedule: Q04DX003 (ip), vehicle: saline with Tween-80 113 % of control | dose: 50.0 mg/kg/injection, schedule: Q01DX009 (ip), vehicle: saline with Tween-80 100 % of control | dose: 50.0 mg/kg/injection, schedule: Q04DX003 (ip), vehicle: saline with Tween-80 100 % of control | dose: 100.0 mg/kg/injection, schedule: Q01DX009 (ip), vehicle: saline with Tween-80 104 % of control | [11] 100 % of control

COc1cc2c(/C=N/NS(=O)(=O)c3ccc(C)cc3)c(Cl)[nH]c2cc1C
inactive: dose: 12.5 mg/kg/injection, schedule: Q01DX009 (ip), vehicle: Klucel (hydroxypropylcellulose) (HPC) 103 % of control | dose: 25.0 mg/kg/injection, schedule: Q01DX009 (ip), vehicle: Klucel (hydroxypropylcellulose) (HPC) 95 % of control | [15] 92 % of control | [8] 100 % of control | [9] 120 % of control | [10] 100 % of control

Clc1cccc(Cl)c1C1CSc2ccccc2N=C1c1ccccc1 (stereo not given)
inactive: [15] 94 % of control | dose: 100.0 mg/kg/injection, schedule: Q01DX009 (ip), vehicle: Klucel (hydroxypropylcellulose) (HPC) 100 % of control | dose: 200.0 mg/kg/injection, schedule: Q01DX009 (ip), vehicle: Klucel (hydroxypropylcellulose) (HPC) 100 % of control

Cc1ccc(C)c(NC(=O)/C=N/O)c1
inactive: [12] 98 % of control | [13] 110 % of control | [14] 105 % of control

Nc1nc(Br)c(Br)nc1N
inactive: dose: 100.0 mg/kg/injection, schedule: Q04DX003 (ip), vehicle: other 100 % of control | dose: 200.0 mg/kg/injection, schedule: Q04DX003 (ip), vehicle: other 100 % of control | dose: 400.0 mg/kg/injection, schedule: Q04DX003 (ip), vehicle: other 95 % of control

Fc1ccc(-c2nc3ccccn3c2N=Nc2ccccc2)cc1
inactive: [12] 88 % of control | [13] 97 % of control | [14] 94 % of control

CN(C)c1cccc2c(S(=O)(=O)NCCCCCCCCCCCCN)cccc12
inactive: dose: 100.0 mg/kg/injection, schedule: Q01DX001 (ip), vehicle: saline + Tween-80 + alcohol 105 % of control

Cc1cc(C=C2C(=O)c3ccccc3C2=O)cc(C(C)(C)C)c1O
inactive: [1] 100 % of control | [2] 100 % of control | [3] 97 % of control

Fc1cccc(Cl)c1CSC(=S)N1CCSCC1
inactive: [4] 110 % of control | [5] 105 % of control | [6] 96 % of control

CCOC(=O)/C=C/C(=O)O (tested in a mixture with another compound)
inactive: dose: 100.0 mg/kg/injection, schedule: Q04DX003 (ip), vehicle: saline 100 % of control | dose: 200.0 mg/kg/injection, schedule: Q04DX003 (ip), vehicle: saline 98 % of control | dose: 400.0 mg/kg/injection, schedule: Q04DX003 (ip), vehicle: saline 96 % of control

CC(=O)N(O)c1ccc(Cl)cc1
inactive: dose: 25.0 mg/kg/injection, schedule: Q04DX002 (ip), vehicle: saline with Tween-80 100 % of control | dose: 50.0 mg/kg/injection, schedule: Q04DX002 (ip), vehicle: saline with Tween-80 102 % of control | dose: 100.0 mg/kg/injection, schedule: Q04DX002 (ip), vehicle: saline with Tween-80 100 % of control | dose: 200.0 mg/kg/injection, schedule: Q04DX002 (ip), vehicle: saline with Tween-80 105 % of control
